Measurements from patent publication US20120015925A1, “NOVEL BENZOTHIAZEPINE AND BENZOTHIEPINE COMPOUNDS” (ASAHI KASEI PHARMA CORPORATION, priority 2004, published 2012).

What was measured:
[1] = molecular target: T1, human IBAT (Homo sapiens, UniProt Q12908); experiment: In vitro assay using Cos 7 cells, transiently expressed human IBAT; assay type: cell-based; settings: 37° C., 60 minutes
T1 sequence (Q12908 1-348): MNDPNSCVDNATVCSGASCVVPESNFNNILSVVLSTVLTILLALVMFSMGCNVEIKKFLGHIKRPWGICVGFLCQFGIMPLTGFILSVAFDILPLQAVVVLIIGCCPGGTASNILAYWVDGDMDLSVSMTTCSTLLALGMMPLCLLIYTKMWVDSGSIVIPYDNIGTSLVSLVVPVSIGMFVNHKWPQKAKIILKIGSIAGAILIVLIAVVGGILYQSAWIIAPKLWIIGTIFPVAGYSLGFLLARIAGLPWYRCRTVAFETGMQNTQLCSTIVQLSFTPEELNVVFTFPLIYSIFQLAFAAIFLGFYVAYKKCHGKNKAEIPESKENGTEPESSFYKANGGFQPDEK
In short: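 Cos 7 cells transfected with human or rat IBAT cDNA were assayed one day later in Hanks buffer with 25 mM glucose and 10 mM HEPES (pH 7.4) containing compound. [^3H]-taurocholate (8 μM final) uptake ran 60 min at 37° C. Cells were washed with 1 mM taurocholate, lysed in NaOH, and counted by liquid scintillation.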

[2] = tested on: Caco-2 cell; experiment: Gastrointestinal toxicity: cytotoxicity against Caco-2 cell (LDH activity); assay type: cell-based, human; settings: 2 hours, LDH activity in medium relative to cell lysis agent = 100%
Procedure: That is, 10,000 cells/well of Caco-2 cells (purchased from ATCC) were seeded in a 96-well plate [MEM-E medium, 10% FBS (Fetal Bovine Serum), 1% NEAA (Non Essential Amino Acid) solution, supplied from Gibco]. After culturing for 48 hours, the test compound diluted with the medium was added to each well. After 2 hours, 50 μL of the medium was collected, and an LDH activity in the medium was measured using an LDH activity measurement kit (CytoTox96 Non-Radioactive Cytotoxicity Assay, supplied from Promega). Defining the LDH activity of the Caco-2 cells treated with a cell lysis agent as being 100%, the relative activity was calculated as a index of the cytotoxicity.

[3] = tested on: rats dosed cholic acid; experiment: Lowering effect on bile acid concentrations in portal vein blood in rats dosed cholic acid; assay type: in vivo, rat
Procedure: In the present Test Example, a lowering effect on bile acid concentrations in portal vein blood in rats dosed cholic acid was evaluated according to the method described in Jpn. Pharmacol. Ther., Vol. 24 Supplement, 1996, 103(S-577)-110(S-584).
That is, SD (IGS) strain male rats at 7 to 9 weeks of age were fasted one day before the administration date. […] The blood was collected from the portal vein 2 hours after the forced oral administration, and a total bile acid value in serum was measured to examine the effect of the test compound (n=6). As a control, another group (n=6) merely received cholic acid (200 mg/kg), to which the same procedure was applied. The cholic acid value was measured using the commercially available kit (brand name: Total Bile Acid-Test Wako, supplied form Wako Pure Chemical Industries). Defining the value in the control group to which no test compound had been administered as being 100%, a reduction rate (%) of the bile acid value when a certain amount of the test compound had been administered was calculated.

[4] = molecular target: T2, rat IBAT (Rattus norvegicus, UniProt Q62633); experiment: In vitro assay using Cos 7 cells, transiently expressed rat IBAT; assay type: cell-based; settings: [3H]-taurocholate 8 μM uptake, 37° C., 60 minutes
T2 sequence (Q62633 1-348): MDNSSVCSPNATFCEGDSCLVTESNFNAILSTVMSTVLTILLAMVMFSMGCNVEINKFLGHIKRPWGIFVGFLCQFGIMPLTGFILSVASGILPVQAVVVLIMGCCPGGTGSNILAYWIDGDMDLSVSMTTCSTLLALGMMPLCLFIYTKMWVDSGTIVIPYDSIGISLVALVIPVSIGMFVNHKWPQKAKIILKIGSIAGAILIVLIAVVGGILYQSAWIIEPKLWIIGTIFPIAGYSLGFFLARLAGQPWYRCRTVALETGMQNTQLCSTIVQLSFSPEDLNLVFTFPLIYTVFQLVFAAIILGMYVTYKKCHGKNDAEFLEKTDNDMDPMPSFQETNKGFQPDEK
Procedure: In the present Test Example, an in vitro assay of compounds using Cos 7 cells as to inhibitory activity on transiently expressed human IBAT or rat IBAT transporter was performed according to the method described in Am. J. Physiol., 274, G157-169.
That is, […] cells/well of Cos 7 cells were seeded in a 24-well plate, and after one day, the cells were transfected with 0.3 μg/well of cDNA of human IBAT or rat IBAT using FuGENE6 (supplied from Roche). After culturing for one day after the transfection, the cells were washed once with the assay buffer, i.e., Hanks buffer containing 25 mM glucose and 10 mM HEPES (pH 7.4). The assay buffer was then replaced with the assay buffer containing the test compound. [^3H]-Taurocholate at a final concentration of 8 μM was added thereto and incubated at 37° C. for 60 minutes so that [^3H]-taurocholate was taken into Cos 7 cells by the action of human IBAT or rat IBAT. The cells were washed twice with the assay buffer containing 1 mM taurocholate, and subsequently lysed with 0.2 M NaOH to stop the reaction. The cell lysate was added to 4 mL of liquid scintillation cocktail, which was then thoroughly vortexed. Then the radioactivity was measured using the liquid scintillation counter.

[5] = tested on: rats fed cholesterol food; experiment: Blood cholesterol lowering effect in rats fed cholesterol food; assay type: in vivo, rat; settings: 0.3 mg/kg per administration, oral, twice per day; SD (IGS) male rats; serum 3 hours after final administration
Procedure: In the present Test Example, a blood cholesterol lowering effect on rats fed cholesterol food was evaluated according to the method described in J. Lipid Res., 1995, 36, 1098-1105.
That is, the food containing 0.4% cholesterol and 0.5% bile acid was given to SD (IGS) strain male rats at 7 to 9 weeks of age for 5 days in advance of the test date, to increase blood cholesterol levels. The rats in which the blood cholesterol level had been obviously elevated from the level before loading the cholesterol food were selected as the subjects in the test. Colestimide (brand name: Cholebine 70% granules, supplied from Mitsubishi Tokyo Pharmaceutical Inc.) which is an anion exchange resin drug was suspended in distilled water, and the test compound was dissolved or suspended in distilled water. They were orally administered forcibly twice per day everyday from the starting date (each n=8). The blood was collected from jugular vein 3 hours after the drug administration on the final day of the experiment, and the cholesterol level in serum was measured to examine the effect of the test compound. As a control, another group (n=8) was merely fed cholesterol food, to which distilled water (1 mL/kg) was administered and the same procedure was applied. The total cholesterol value and the HDL cholesterol value were measured using commercially available kits. The value obtained by subtracting the HDL cholesterol value from the total cholesterol value was regarded as an LDL+VLDL cholesterol value.

[6] = 0.1 mg/kg oral with cholic acid 200 mg/kg, portal vein serum total bile acid 2 hours after, control = 100%, surfactant HCO-60 (##)
[7] = 0.1 mg/kg oral, surfactant HCO-60 0.1%, cholic acid 200 mg/kg, portal vein blood 2 hours after administration
[8] = 0.1 mg/kg oral, surfactant Tween 20 0.05%, cholic acid 200 mg/kg, portal vein blood 2 hours after administration

SMILES	IC50 ([1]; [3H]-taurocholate 8 μM uptake) [nM]	IC50 [4] [nM]	CELL TOXICITY AGAINST Caco2 3 μM [2] [%]	CELL TOXICITY AGAINST Caco2 10 μM [2] [%]	CELL TOXICITY AGAINST Caco2 30 μM [2] [%]	BILE ACID REDUCTION RATE (%) IN RAT MODEL WITH CHOLIC ACID LOADING [3, 6] [%]	BILE ACID REDUCTION RATE (%) IN RAT MODEL WITH CHOLIC ACID LOADING [3, 7] [%]	BILE ACID REDUCTION RATE (%) IN RAT MODEL WITH CHOLIC ACID LOADING [3, 8] [%]	BILE ACID REDUCTION RATE (%) IN RAT MODEL WITH CHOLIC ACID LOADING ([3]; 0.3 mg/kg oral with cholic acid 200 mg/kg, portal vein serum total bile acid 2 hours after, control = 100%, surfactant HCO-60 (##)) [%]	IC50 ([1]; [3H]-taurocholate 8 μM) [nM]	LDL + VLDL REDUCTION RATE (%) IN CHOLESTEROL FED RAT MODEL (THERAPEUTIC MODEL) [5] [%]
CCCCC1(CCCC)CS(=O)(=O)c2ccc(N(C)C)cc2C(c2cccc(NC(=S)Nc3ccc(C[N+]4(Cc5ccccc5)CCCC(CO)C4)cc3)c2)N1.[Br-] (centres unmarked) [EXAMPLE 3607]	41		<1	<1	<1		36				
CCCCC1(CCCC)CS(=O)(=O)c2ccc(N(C)C)cc2C(c2cccc(NC(=S)Nc3ccc(C[n+]4ccc(CC)cc4)cc3)c2)N1.[Br-] (centres unmarked) [EXAMPLE 3710]	52		<1	<1	<1	20					
CCCCC1(CCCC)CS(=O)(=O)c2ccc(N(C)C)cc2C(c2cccc(NC(=S)Nc3ccc(C[n+]4cccc(CC#N)c4)cc3)c2)N1.[Br-] (centres unmarked) [EXAMPLE 3759]			<1	<1	<1				36		
CCCCC1(CCCC)CS(=O)(=O)c2ccc(N(C)C)cc2C(c2cccc(NC(=S)Nc3ccc(C[n+]4ccc5ccccc5c4)cc3)c2)N1.[Br-] (centres unmarked) [EXAMPLE 3783]	48		<1	<1	<1	16					
CCCCC1(CCCC)CS(=O)(=O)c2ccc(N(C)C)cc2C(c2cccc(NC(=S)Nc3ccc(C[N+]45CCC(c6ccccc6)(CC4)CC5)cc3Br)c2)N1.[Br-] (centres unmarked) [EXAMPLE P346]	19	6		<1	<1						
CCCCC1(CCCC)CS(=O)(=O)c2ccc(N(C)C)cc2C(c2cccc(NC(=S)Nc3ccc(C[n+]4ccc(C(C)(C)C)cc4)c(C)c3)c2)N1.[Br-] (centres unmarked) [EXAMPLE P365]						40				47	44
CCCCC1(CCCC)CS(=O)(=O)c2ccc(N(C)C)cc2C(c2cccc(NC(=S)Nc3ccc(C[n+]4ccc(C(C)(C)C)cc4)cc3F)c2)N1.[Br-] (centres unmarked) [EXAMPLE P366]	25					45					31

More lines, main results first:

IC50 ([1]; [3H]-taurocholate 8 μM uptake) [nM]	IC50 [4] [nM]	SMILES	CELL TOXICITY AGAINST Caco2 3 μM [2] [%]	CELL TOXICITY AGAINST Caco2 10 μM [2] [%]	CELL TOXICITY AGAINST Caco2 30 μM [2] [%]	BILE ACID REDUCTION RATE (%) IN RAT MODEL WITH CHOLIC ACID LOADING [3, 6] [%]	BILE ACID REDUCTION RATE (%) IN RAT MODEL WITH CHOLIC ACID LOADING [3, 7] [%]	BILE ACID REDUCTION RATE (%) IN RAT MODEL WITH CHOLIC ACID LOADING [3, 8] [%]	BILE ACID REDUCTION RATE (%) IN RAT MODEL WITH CHOLIC ACID LOADING ([3]; 0.3 mg/kg oral with cholic acid 200 mg/kg, portal vein serum total bile acid 2 hours after, control = 100%, surfactant HCO-60 (##)) [%]	IC50 ([1]; [3H]-taurocholate 8 μM) [nM]	LDL + VLDL REDUCTION RATE (%) IN CHOLESTEROL FED RAT MODEL (THERAPEUTIC MODEL) [5] [%]
45		CCCCC1(CCCC)CS(=O)(=O)c2ccc(N(C)C)cc2C(c2cccc(NC(=S)Nc3ccc(C[N+](C)(C)CCCC)cc3)c2)N1.[Br-] (racemic) [EXAMPLE 3409]	<1	<1	<1	28					
37	5	CCCCC1(CCCC)CS(=O)(=O)c2ccc(N(C)C)cc2C(c2cccc(NC(=S)Nc3ccc(C[N+]45CCC(CC4)CC5)cc3)c2)N1.[Br-] (racemic) [EXAMPLE 3695]	<1	<1	<1		23				
170		CCCCC1(CCCC)CS(=O)(=O)c2ccc(N(C)C)cc2C(c2cccc(NC(=S)NCCC[N+](C)(C)Cc3ccccc3)c2)N1.[Br-] (centres unmarked) [EXAMPLE 425]						21			
59		CCCCC1(CCCC)CS(=O)(=O)c2ccc(N(C)C)cc2C(c2cccc(NC(=S)Nc3ccc(C[N+]4(Cc5ccccc5)CCC(CCO)CC4)cc3)c2)N1.[Br-] (centres unmarked) [EXAMPLE 3608]	<1	<1	<1		43				
43		CCCCC1(CCCC)CS(=O)(=O)c2ccc(N(C)C)cc2C(c2cccc(NC(=S)CCCCC[N+](C)(C)Cc3ccccc3)c2)N1.[Br-] (centres unmarked) [EXAMPLE 3835]	<1	<1	<1			23			
28	9	CCCCC1(CCCC)CS(=O)(=O)c2ccc(N(C)C)cc2C(c2cccc(NC(=S)CCCCC[N+]34CCC(c5ccccc5)(CC3)CC4)c2)N1.[Br-] (centres unmarked) [EXAMPLE 3853]	<1	<1	<1		36				
36	9	CCCCC1(CCCC)CS(=O)(=O)c2ccc(N(C)C)cc2C(c2cccc(NC(=S)CCCCCCC[N+]34CCC(CC3)CC4)c2)N1.[Br-] (centres unmarked) [EXAMPLE 3932]						30			
16	5.5	CCCCC1(CCCC)CS(=O)(=O)c2ccc(N(C)C)cc2C(c2cccc(NC(=S)Nc3ccc(C[N+]45CCC(c6ccccc6)(CC4)CC5)c(F)c3)c2)N1.[Br-] (centres unmarked) [EXAMPLE P343]		<1	<1						
